Laboratory results reported in patent publication US11987568B2, “Allosteric inhibitor of WEE1 kinase” (H. LEE MOFFITT CANCER CENTER AND RESEARCH INSTITUTE, INC., priority 2018, dated 2024).
Values joined by “and” are separate entries in the source; they are usually repeats but may differ in a detail not shown here. Identical values can stand only once.

The compounds below were run against full length human WEE1 kinase (Homo sapiens, UniProt P30291) (assay: ELISA based assay: WEE1 phosphorylation of biotinylated H2B peptide spanning Tyr37). Conditions: Table 1; several values in a cell are repeat determinations.
Chain of full length human WEE1 kinase (P30291 whole entry): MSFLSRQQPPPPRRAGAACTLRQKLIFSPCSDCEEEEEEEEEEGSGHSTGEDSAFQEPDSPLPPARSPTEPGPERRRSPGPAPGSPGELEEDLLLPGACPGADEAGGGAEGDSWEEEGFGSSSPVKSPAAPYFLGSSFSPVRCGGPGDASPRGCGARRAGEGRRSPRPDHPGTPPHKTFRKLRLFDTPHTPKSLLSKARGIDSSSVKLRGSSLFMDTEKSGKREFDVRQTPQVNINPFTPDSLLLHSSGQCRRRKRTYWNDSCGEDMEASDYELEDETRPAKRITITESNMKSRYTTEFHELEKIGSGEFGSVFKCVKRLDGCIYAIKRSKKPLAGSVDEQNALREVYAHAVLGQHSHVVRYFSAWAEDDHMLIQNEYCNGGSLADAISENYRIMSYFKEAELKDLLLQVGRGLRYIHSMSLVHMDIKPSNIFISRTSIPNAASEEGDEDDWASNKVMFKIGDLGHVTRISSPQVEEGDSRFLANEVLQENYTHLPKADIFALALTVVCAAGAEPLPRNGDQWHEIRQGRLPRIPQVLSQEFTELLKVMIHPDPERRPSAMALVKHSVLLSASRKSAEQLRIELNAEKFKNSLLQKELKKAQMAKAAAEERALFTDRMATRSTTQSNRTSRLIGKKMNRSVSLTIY
Format: biochemical
Parameters: A full length human WEE1 kinase that was enzymatically active was purified from insect cell; ELISA assay % Inhibition: concentration or dose not given beside the values
Source text: Designing of a Novel inhibitor Screening Platform: […] A full length human WEE1 kinase that was enzymatically active was purified from insect cell. […] NCI diversity set compound library ( 1600 compounds) was used for the screening.

Row | Compound | ELISA Inhibition (%)
1 | (2,5-Bis((4-(aminomethyl)phenyl)carbamoyl)pyridin-1-ium-1-yl)hydridochlorate(I) dihydrochloride [SG5-147-11] | 68%
2 | Cl.Nc1ccc(CNC(=O)c2ccc(C(=O)NCc3ccc(N)cc3)o2)cc1 [SG5-147-14] | −16%
3 | Nc1ccc(NC(=O)c2cccc(C(=O)Nc3ccc(N)cc3)n2)cc1 [SG5-128] | 2%
4 | Cc1cc(C(=O)Nc2ccc(NC(=O)OC(C)(C)C)c(Cl)c2)c(C)cc1C(=O)Nc1ccc(NC(=O)OC(C)(C)C)c(Cl)c1 [SG5-140-5] | 24%
5 | Cc1cc(C(=O)Nc2ccc(NC(=O)OC(C)(C)C)c(F)c2)c(C)cc1C(=O)Nc1ccc(NC(=O)OC(C)(C)C)c(F)c1 [SG5-140-1] | 25%
6 | CC(C)(C)OC(=O)Nc1ccc(NC(=O)c2ccc(C(=O)Nc3ccc(NC(=O)OC(C)(C)C)cc3)nc2)cc1 [SG5-119, Di-tert-butyl (((pyridine-2,5-dicarbonyl)bis(azanediyl))bis(4,1-phenylene))dicarbamate] | −17%
7 | Cc1cc(C(=O)Nc2ccc(NC(=O)OC(C)(C)C)cc2)c(C)cc1C(=O)Nc1ccc(NC(=O)OC(C)(C)C)cc1 [SG5-106] | −23%
8 | Cl.Nc1ccc(NC(=O)C2CCC(C(=O)Nc3ccc(N)c(Cl)c3)CC2)cc1Cl (stereo not drawn) [SG5-147-8] | 17%
9 | Cc1cc(C(=O)NC2CCNCC2)c(C)cc1C(=O)NC1CCNCC1.Cl [SG5-147-17] | 21%
10 | CC(C)(C)OC(=O)N1CCC(NC(=O)C2CCC(C(=O)NC3CCN(C(=O)OC(C)(C)C)CC3)CC2)CC1 (stereo not drawn) [SG5-140-20] | 28%
11 | CC(C)(C)OC(=O)N1CCC(NC(=O)c2ccc(C(=O)NC3CCN(C(=O)OC(C)(C)C)CC3)o2)CC1 [SG5-140-18] | −27%
12 | CC(C)(C)OC(=O)Nc1ccc(NC(=O)c2cccc(C(=O)Nc3ccc(NC(=O)OC(C)(C)C)cc3)n2)cc1 [SG5-123] | −39%
13 | Cl.Cl.Cl.Nc1ccc(NC(=O)c2ccc(C(=O)Nc3ccc(N)c(F)c3)nc2)cc1F [SG5-147-3, (2,5-Bis((4-amino-3-fluorophenyl)carbamoyl)pyridin-1-ium-1-yl)hydridochlorate(I) dihydrochloride] | 50%
14 | Cl.Nc1ccc(CNC(=O)C2CCC(C(=O)NCc3ccc(N)cc3)CC2)cc1 (stereo not drawn) [SG5-147-16] | −14%
15 | CC(C)(C)OC(=O)Nc1ccc(CNC(=O)C2CCC(C(=O)NCc3ccc(NC(=O)OC(C)(C)C)cc3)CC2)cc1 (stereo not drawn) [SG5-140-16] | 8%
16 | Cc1cc(C(=O)Nc2ccc(N)c(Cl)c2)c(C)cc1C(=O)Nc1ccc(N)c(Cl)c1.Cl [SG5-147-5] | 2%
17 | Cc1cc(C(=O)Nc2ccc(N)cc2)c(C)cc1C(=O)Nc1ccc(N)cc1 [SG5-110] | 14%
18 | CC(C)(C)OC(=O)Nc1ccc(NC(=O)c2ccc(C(=O)Nc3ccc(NC(=O)OC(C)(C)C)c(F)c3)nc2)cc1F [SG5-140-3, Di-tert-butyl (((pyridine-2,5-dicarbonyl)bis(azanediyl))bis(2-fluoro-4,1-phenylene))dicarbamate] | 22%
19 | CC(C)(C)OC(=O)Nc1ccc(NC(=O)c2ccc(C(=O)Nc3ccc(NC(=O)OC(C)(C)C)c(Cl)c3)cc2)cc1Cl [SG5-133-2] | −38%
20 | Nc1ccc(NC(=O)c2ccc(C(=O)Nc3ccc(N)cc3)nc2)cc1 [SG5-124, N^2,N^5-bis(4-aminophenyl)pyridine-2,5-dicarboxamide] | 73% and 103%
21 | Nc1ccc(NC(=O)c2ccc(C(=O)Nc3ccc(N)c(F)c3)cc2)cc1F [SG5-137-1] | −24%
22 | CC(C)(C)OC(=O)Nc1ccc(NC(=O)c2cccc(C(=O)Nc3ccc(NC(=O)OC(C)(C)C)cc3)c2)cc1 [SG5-099] | −14%

The next lines start with the values.

Row | ELISA Inhibition (%) | Compound
23 | −4% | Cc1cc(C(=O)NCc2ccc(NC(=O)OC(C)(C)C)cc2)c(C)cc1C(=O)NCc1ccc(NC(=O)OC(C)(C)C)cc1 [SG5-140-13]
24 | 9% | Cc1cc(C(=O)Nc2ccc(CN)cc2)c(C)cc1C(=O)Nc1ccc(CN)cc1.Cl [SG5-147-9]
25 | −57% | CC(C)(C)OC(=O)Nc1ccc(NC(=O)c2ccc(C(=O)Nc3ccc(NC(=O)OC(C)(C)C)c(F)c3)cc2)cc1F [SG5-133-1]
26 | 41% | Cc1cc(C(=O)Nc2ccc(N)c(F)c2)c(C)cc1C(=O)Nc1ccc(N)c(F)c1.Cl [SG5-147-1]
27 | 12% | CC(C)(C)OC(=O)Nc1ccc(NC(=O)c2ccc(C(=O)Nc3ccc(NC(=O)OC(C)(C)C)c(Cl)c3)nc2)cc1Cl [SG5-140-7]
28 | −5% | Cl.O=C(NC1CCNCC1)c1ccc(C(=O)NC2CCNCC2)o1 [SG5-147-18]
29 | 10% | Cc1cc(C(=O)NC2CCN(C(=O)OC(C)(C)C)CC2)c(C)cc1C(=O)NC1CCN(C(=O)OC(C)(C)C)CC1 [SG5-140-17]
30 | 25% | CC(C)(C)OC(=O)Nc1ccc(NC(=O)c2ccc(C(=O)Nc3ccc(NC(=O)OC(C)(C)C)c(F)c3)o2)cc1F [SG5-140-2]
31 | 12% | CC(C)(C)OC(=O)Nc1ccc(CNC(=O)c2ccc(C(=O)NCc3ccc(NC(=O)OC(C)(C)C)cc3)nc2)cc1 [SG5-140-15]
32 | −7% | CC(C)(C)OC(=O)Nc1ccc(NC(=O)[C@H]2CC[C@H](C(=O)Nc3ccc(NC(=O)OC(C)(C)C)cc3)CC2)cc1 [SG5-121]
33 | 4% | CC(C)(C)OC(=O)NCc1ccc(NC(=O)C2CCC(C(=O)Nc3ccc(CNC(=O)OC(C)(C)C)cc3)CC2)cc1 (stereo not drawn) [SG5-140-12]
34 | 22% | Cl.O=C(NC1CCNCC1)C1CCC(C(=O)NC2CCNCC2)CC1 (stereo not drawn) [SG5-147-20]
35 | 12% | Cc1cc(C(=O)NCc2ccc(N)cc2)c(C)cc1C(=O)NCc1ccc(N)cc1.Cl [SG5-147-13]
36 | 25% | CC(C)(C)OC(=O)Nc1ccc(NC(=O)C2CCC(C(=O)Nc3ccc(NC(=O)OC(C)(C)C)c(Cl)c3)CC2)cc1Cl (stereo not drawn) [SG5-140-8]
37 | 13% | Cl.Nc1ccc(NC(=O)c2ccc(C(=O)Nc3ccc(N)c(Cl)c3)o2)cc1Cl [SG5-147-6]
38 | −8% | CC(C)(C)OC(=O)Nc1ccc(NC(=O)c2ccc(C(=O)Nc3ccc(NC(=O)OC(C)(C)C)cc3)o2)cc1 [SG5-107, Di-tert-butyl (((furan-2,5-dicarbonyl)bis(azanediyl))bis(4,1-phenylene))dicarbamate]
39 | 20% | Cl.Nc1ccc(NC(=O)C2CCC(C(=O)Nc3ccc(N)c(F)c3)CC2)cc1F (stereo not drawn) [SG5-147-4]
40 | −39% | Nc1ccc(NC(=O)[C@H]2CC[C@H](C(=O)Nc3ccc(N)cc3)CC2)cc1 [SG5-126]
41 | −9% | Cl.NCc1ccc(NC(=O)C2CCC(C(=O)Nc3ccc(CN)cc3)CC2)cc1 (stereo not drawn) [SG5-147-12]
42 | 28% | CC(C)(C)OC(=O)N1CCC(NC(=O)c2ccc(C(=O)NC3CCN(C(=O)OC(C)(C)C)CC3)nc2)CC1 [SG5-140-19]
43 | 13% | CC(C)(C)OC(=O)NCc1ccc(NC(=O)c2ccc(C(=O)Nc3ccc(CNC(=O)OC(C)(C)C)cc3)o2)cc1 [SG5-140-10]
44 | −4% | CC(C)(C)OC(=O)Nc1ccc(CNC(=O)c2ccc(C(=O)NCc3ccc(NC(=O)OC(C)(C)C)cc3)o2)cc1 [SG5-140-14]
45 | −52% | Cl.Nc1ccc(NC(=O)c2ccc(C(=O)Nc3ccc(N)c(Cl)c3)cc2)cc1Cl [SG5-137-2]
46 | 20% | CC(C)(C)OC(=O)Nc1ccc(NC(=O)[C@H]2CC[C@H](C(=O)Nc3ccc(NC(=O)OC(C)(C)C)c(F)c3)CC2)cc1F [SG5-140-4]
47 | 12% | Nc1ccc(NC(=O)c2cccc(C(=O)Nc3ccc(N)cc3)c2)cc1 [SG5-103]
48 | 37% | Cl.Nc1ccc(NC(=O)c2ccc(C(=O)Nc3ccc(N)c(F)c3)o2)cc1F [SG5-147-2]
49 | 18% | Cc1cc(C(=O)Nc2ccc(CNC(=O)OC(C)(C)C)cc2)c(C)cc1C(=O)Nc1ccc(CNC(=O)OC(C)(C)C)cc1 [SG5-140-9]
50 | 17% | CC(C)(C)OC(=O)Nc1ccc(NC(=O)c2ccc(C(=O)Nc3ccc(NC(=O)OC(C)(C)C)c(Cl)c3)o2)cc1Cl [SG5-140-6]
51 | 4% | Cl.NCc1ccc(NC(=O)c2ccc(C(=O)Nc3ccc(CN)cc3)o2)cc1 [SG5-147-10]
52 | −6% | CC(C)(C)OC(=O)NCc1ccc(NC(=O)c2ccc(C(=O)Nc3ccc(CNC(=O)OC(C)(C)C)cc3)nc2)cc1 [SG5-140-11, Di-tert-butyl ((((pyridine-2,5-dicarbonyl)bis(azanediyl))bis(4,1-phenylene))bis(methylene))dicarbamate]

Same assay, conditions: Table 1; several values in a cell are repeat determinations; dihydrochloride

Row | ELISA Inhibition (%) | Compound
53 | 32% and 60% | Cl.Nc1ccc(CNC(=O)c2ccc(C(=O)NCc3ccc(N)cc3)cc2)cc1 [SG5-137-3, N^1,N^4-bis(4-aminobenzyl)terephthalamide dihydrochloride]

Same assay, conditions: Table 3; No peptide = 100, No inhibitor = 0

Row | ELISA assay % Inhibition [%] | Compound
54 | 98 | Nc1ccc(NC(=O)c2ccc(C(=O)Nc3ccc(N)cc3)nc2)cc1 [SG5-124, N^2,N^5-bis(4-aminophenyl)pyridine-2,5-dicarboxamide]
